Like-named read-outs stand apart in the source and are kept apart here.
Tested on: HBV
Assay: Anti-HBV assay: HBV DNA in supernatants of HBV-producing cells (HepG2 2.2.15, P5A cell line), immunoaffinity capture, PCR and hybrid-capture detection
Assay type: cell-based, Hepatitis B virus
Conditions: table headed Anti-HCMV Activity
Method: Anti-HBV activity of compounds of formula (I) and (I-1) was determined with a high-capacity assay for assessing efficacy. Supernatants from growing HBV-producing cells (HepG2 2.2.15, P5A cell line) in 96-well plates are applied to microtiter plate wells which have been coated with a specific monoclonal antibody to HBV surface antigen (HBsAg). Virus particles present in the supernatants bind to the antibody and remain immobilized while other debris is removed by washing. These virus particles are then denatured to release HBV DNA strands which are subsequently amplified by the polymerase chain reaction and detected with a colorimetric hybrid-capture assay. Quantitation is achieved through fitting of a standard curve to dilutions of a cell supernatant with known HBV DNA content. By comparing HBV DNA levels of untreated control cell supernatants with supernatants containing a compound of formula (I) or (I-1), a measure of anti-HBV effectiveness is obtained.
HBV producer cells, 2500 cells/well, were seeded in 96-well culture dishes in RPMI/10% fetal bovine serum/2 mM glutamine (RPMI/10/2:). […] Twenty-five uL HBV standard media dilutions in RPMI/10/2 were added to 2 rows of wells to serve as an internal standard curve for quantitation, and the plates were sealed and incubated at 4° C. overnight. […]
Polymerase chain reaction (Saiki, R. K. et al., Science, 239 (4839) 487-91 (1988)) was carried out on 5 uL samples, using a Perkin Elmer PCR kit. […] Primers were chosen from conserved regions in the HBV genome, as determined by alignment of several sequences. […]
PCR products were detected with horse radish peroxidase-labeled oligonucleotide probes (Synthecell Corp., Rockville, Md. 20850), which hybridize to biotinylated strands of denatured PCR products directly in streptavidin-coated microtiter plate wells, using essentially the method of Holodiniy, M. et al., Bio Techniques, 12 (1)37-39 (1992). […] Quantities of HBV DNA present in the original samples were calculated by comparison with standards. […]

[1] = Hepatitis B virus, HepG2 2.2.15, read-out: Anti-HBV activity, approximate IC50 (50 percent decrease in HBV DNA), HepG2 2.2.15, P5A cell line

| Structure (SMILES) | IC50 [1] [nM] | IC50 (read-out: Anti-HBV activity, approximate IC50 (50 percent decrease in HBV DNA), HepG2 2.2.15, P5A cell line) [nM] |
| --- | --- | --- |
| OC[C@@H]1C[C@@H](O)[C@H](n2c(Br)nc3cc(Cl)c(Cl)cc32)C1 (relative stereo) [Ex. 13, (±)-(1R*, 2R*, 4S*)-2-(2-Bromo-5,6-dichloro-1H-benzimidazol-1-yl)-4-(hydroxymethyl)cyclo-pentanol] | 5000 | – |
| OC[C@@H]1C[C@H](n2c(Br)nc3cc(Cl)c(Cl)cc32)[C@@H](O)[C@H]1O [Ex. 69, (1R, 2S, 3S, 5S)-5-(2-Bromo-5,6-dichloro-1H-benzimidazol-1-yl)-3-(hydroxymethyl)-1,2-cyclopentanediol] | 720 | 1300 |

Source: patent US5534535A, “Therapeutic nucleosides” (Burroughs Wellcome Co., priority 1992, dated 1996)
